Structures can show the parent of a compound that is named as a salt.
Tests used:
[1] = target: T1, 5-hydroxytryptamine receptor 2C (Homo sapiens, UniProt P28335); test: Agonist activity at human 5HT2C receptor expressed in HEK293 cells assessed as calcium flux by FLIPR assay
T1 sequence (P28335 whole entry): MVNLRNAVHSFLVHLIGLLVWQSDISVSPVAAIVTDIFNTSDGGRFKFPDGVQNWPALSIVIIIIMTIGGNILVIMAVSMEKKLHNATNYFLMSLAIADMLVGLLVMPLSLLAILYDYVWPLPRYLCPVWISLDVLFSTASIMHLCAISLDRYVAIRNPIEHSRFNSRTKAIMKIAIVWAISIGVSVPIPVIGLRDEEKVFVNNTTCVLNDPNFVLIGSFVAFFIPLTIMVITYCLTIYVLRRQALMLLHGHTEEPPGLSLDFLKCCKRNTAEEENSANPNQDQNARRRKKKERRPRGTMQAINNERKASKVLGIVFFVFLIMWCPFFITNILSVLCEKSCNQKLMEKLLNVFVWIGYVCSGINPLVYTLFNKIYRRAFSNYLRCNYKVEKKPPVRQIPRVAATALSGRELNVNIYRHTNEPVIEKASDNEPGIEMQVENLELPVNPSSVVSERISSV

[2] = target: T2, 5-hydroxytryptamine receptor 2B (Homo sapiens, UniProt P41595); test: Displacement of [3H]LSD from human 5HT2B receptor
T2 sequence (P41595 whole entry): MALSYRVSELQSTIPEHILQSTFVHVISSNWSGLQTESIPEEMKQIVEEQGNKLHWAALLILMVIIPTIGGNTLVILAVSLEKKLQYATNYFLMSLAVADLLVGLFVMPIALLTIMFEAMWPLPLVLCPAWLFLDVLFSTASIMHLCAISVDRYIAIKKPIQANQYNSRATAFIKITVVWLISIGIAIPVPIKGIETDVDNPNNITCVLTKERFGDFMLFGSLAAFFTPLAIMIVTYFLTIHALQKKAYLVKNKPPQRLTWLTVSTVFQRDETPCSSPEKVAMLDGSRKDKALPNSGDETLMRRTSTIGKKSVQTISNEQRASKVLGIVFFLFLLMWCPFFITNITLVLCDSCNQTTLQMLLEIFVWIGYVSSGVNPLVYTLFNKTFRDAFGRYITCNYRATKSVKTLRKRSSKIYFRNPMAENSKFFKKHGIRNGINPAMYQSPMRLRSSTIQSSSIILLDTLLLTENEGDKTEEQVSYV

[3] = target: T1, 5-hydroxytryptamine receptor 2C; test: Displacement of [3H]mesulergine from 5HT2C receptor
[4] = target: T3, 5-hydroxytryptamine receptor 2A (Homo sapiens, UniProt P28223); test: Displacement of [3H]ketanserin from human 5HT2A receptor
T3 sequence (P28223 whole entry): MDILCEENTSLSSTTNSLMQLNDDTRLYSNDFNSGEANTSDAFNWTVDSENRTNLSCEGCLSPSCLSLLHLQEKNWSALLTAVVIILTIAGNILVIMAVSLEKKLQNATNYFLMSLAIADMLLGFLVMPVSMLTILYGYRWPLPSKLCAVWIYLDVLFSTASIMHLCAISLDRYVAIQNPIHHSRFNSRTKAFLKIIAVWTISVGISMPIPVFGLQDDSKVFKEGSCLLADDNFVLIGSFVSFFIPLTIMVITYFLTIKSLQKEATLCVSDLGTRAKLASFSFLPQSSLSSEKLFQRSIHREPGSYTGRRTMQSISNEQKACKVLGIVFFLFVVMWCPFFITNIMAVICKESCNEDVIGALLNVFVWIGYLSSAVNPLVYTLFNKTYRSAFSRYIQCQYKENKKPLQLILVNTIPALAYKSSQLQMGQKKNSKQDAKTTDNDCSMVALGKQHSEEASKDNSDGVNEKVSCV

[5] = target: Sodium-dependent dopamine transporter (Homo sapiens, UniProt Q01959); test: Displacement of [3H]WIN-35428 from DAT
Chain of Sodium-dependent dopamine transporter (Q01959 whole entry): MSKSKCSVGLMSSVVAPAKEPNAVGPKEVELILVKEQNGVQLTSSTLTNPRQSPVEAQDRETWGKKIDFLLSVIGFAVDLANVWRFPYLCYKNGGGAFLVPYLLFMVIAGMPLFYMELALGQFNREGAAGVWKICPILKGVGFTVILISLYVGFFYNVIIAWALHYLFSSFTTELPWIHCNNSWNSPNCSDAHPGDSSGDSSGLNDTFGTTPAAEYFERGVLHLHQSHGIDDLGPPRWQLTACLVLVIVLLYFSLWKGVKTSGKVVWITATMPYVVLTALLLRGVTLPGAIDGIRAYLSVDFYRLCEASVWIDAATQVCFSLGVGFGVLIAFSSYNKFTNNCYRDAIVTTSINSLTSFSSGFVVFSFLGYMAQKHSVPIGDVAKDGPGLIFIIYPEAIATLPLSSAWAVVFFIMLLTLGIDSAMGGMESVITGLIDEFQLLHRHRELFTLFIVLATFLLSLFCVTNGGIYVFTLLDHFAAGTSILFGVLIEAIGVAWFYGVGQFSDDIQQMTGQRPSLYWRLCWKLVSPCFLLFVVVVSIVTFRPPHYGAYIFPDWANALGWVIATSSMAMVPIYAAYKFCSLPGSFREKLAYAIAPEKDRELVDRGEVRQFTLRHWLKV

[6] = target: T3, 5-hydroxytryptamine receptor 2A; test: Agonist activity at human 5HT2A receptor expressed in HEK293 cells assessed as calcium flux by FLIPR assay
[7] = target: T2, 5-hydroxytryptamine receptor 2B; test: Agonist activity at human 5HT2B receptor expressed in HEK293 cells assessed as calcium flux by FLIPR assay
[8] = target: Sodium-dependent serotonin transporter (Homo sapiens, UniProt P31645); test: Displacement of [3H]citalopram from SERT
Chain of Sodium-dependent serotonin transporter (P31645 whole entry): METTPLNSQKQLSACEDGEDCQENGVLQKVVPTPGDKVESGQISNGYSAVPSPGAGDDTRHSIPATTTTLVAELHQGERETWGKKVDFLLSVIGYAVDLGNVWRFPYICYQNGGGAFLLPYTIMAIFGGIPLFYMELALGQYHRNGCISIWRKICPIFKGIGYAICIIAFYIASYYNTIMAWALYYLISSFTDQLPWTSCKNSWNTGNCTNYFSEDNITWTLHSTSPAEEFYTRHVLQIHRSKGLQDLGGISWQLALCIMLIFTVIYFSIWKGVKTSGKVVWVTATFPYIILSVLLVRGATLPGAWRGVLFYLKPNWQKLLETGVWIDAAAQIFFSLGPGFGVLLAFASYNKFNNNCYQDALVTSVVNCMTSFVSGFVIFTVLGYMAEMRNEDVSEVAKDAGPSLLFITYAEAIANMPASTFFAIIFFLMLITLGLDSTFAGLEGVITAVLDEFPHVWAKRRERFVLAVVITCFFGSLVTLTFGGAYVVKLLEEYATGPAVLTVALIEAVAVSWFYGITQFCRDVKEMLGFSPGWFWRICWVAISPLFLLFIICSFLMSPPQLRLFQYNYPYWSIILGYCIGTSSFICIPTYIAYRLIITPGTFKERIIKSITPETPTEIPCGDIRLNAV

[9] = target: Sodium-dependent noradrenaline transporter (Homo sapiens, UniProt P23975); test: Displacement of [3H]nisoxetine from NET
Chain of Sodium-dependent noradrenaline transporter (P23975 whole entry): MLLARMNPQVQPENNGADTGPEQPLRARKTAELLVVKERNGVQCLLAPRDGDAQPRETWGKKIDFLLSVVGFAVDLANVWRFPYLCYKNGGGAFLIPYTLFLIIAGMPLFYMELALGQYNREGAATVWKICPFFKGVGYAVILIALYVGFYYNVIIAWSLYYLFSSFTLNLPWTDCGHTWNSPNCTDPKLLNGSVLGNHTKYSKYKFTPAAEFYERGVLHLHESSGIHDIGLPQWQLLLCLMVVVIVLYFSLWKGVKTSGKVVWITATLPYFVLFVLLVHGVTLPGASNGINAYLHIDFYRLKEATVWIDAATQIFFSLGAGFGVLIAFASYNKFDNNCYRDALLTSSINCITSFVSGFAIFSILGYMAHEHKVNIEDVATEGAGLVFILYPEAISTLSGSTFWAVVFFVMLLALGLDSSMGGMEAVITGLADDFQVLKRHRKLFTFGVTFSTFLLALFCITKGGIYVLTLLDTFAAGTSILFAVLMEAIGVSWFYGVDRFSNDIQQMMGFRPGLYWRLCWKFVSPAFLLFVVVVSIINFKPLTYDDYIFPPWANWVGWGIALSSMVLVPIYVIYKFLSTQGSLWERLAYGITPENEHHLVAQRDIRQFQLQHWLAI

For `NC[C@H]1C[C@@H]1c1ccc(F)cc1` (relative stereo) [trans-[2-(4-Fluorophenyl)cyclopropyl]methylamine Hydrochloride], the EC50 [1] was 5.4 nM, the Ki [2] was 89 nM and the Ki [3] was 242 nM. For the same molecule, the Ki [4] was 2780 nM, the Ki [5] was 3260 nM and the EC50 [6] was 508 nM. It also gave an EC50 [7] of 21 nM, a Ki [8] of 2710 nM and a Ki [9] of 6780 nM.

From BindingDB's records for doi:10.1021/jm801354e (University of Illinois At Chicago, 2009)
